Tests used:
Type in all cases: cell-based
[1] = system: phospho-ERK in Panc10.05 (G12D); test: In-Cell Western phospho-ERK, Panc10.05; settings: Homo sapiens, Panc1005, 1 h; Panc10.05, one hour treatment; read-out: In-Cell Western Panc10.05 (G12D) Erk (P)
Protocol: (§1) In-cell phosphorylation assays for Erk and Akt were performed on several of the compounds and exemplary results are shown in Table 3 below using HCC827 and A375 cell lines for wild type K-Ras and Panc1 and Panc10.05 cell lines for G12D K-Ras mutants. Results are expressed in μM and corresponding structures are shown in FIGS. 2A-2G and Examples 1-152, above.
(§2) Cells are seeded in complete medium into black sided, clear-bottom 384-well microplates at 3000 cells/[…]/well. Plates are returned to 37° C. CO2 incubator for 18 hr. Drug is made as 200× in DMSO and diluted into medium to 10×. To each well is added 4 ul 10× test article or controls, and plates are returned to the incubator. Final assay DMSO concentration is 0.5%. After one hour, cells are fixed in formaldehyde, rinsed & permeabilized with triton X-100, and blocked with BSA/Goat serum blocking solution. Primary phospho-Akt and phospho-ERK antibodies are added and plates are incubated overnight at 4° C. Plates are rinsed with Tween-20 wash buffer and secondary antibody (Goat anti-rabbit, Thermofisher) is added. After 2 hours, plates are rinsed in Tween-20 wash buffer, and then PBS. Plates are imaged on the Celigo (Nexcelom) and cellular fluorescence is quantitated. Full inhibition of phospho-Akt is achieved with 1 uM BEZ235 (Sellekchem), while full inhibition of phospho-ERK is achieved with 1 uM MEK Inhibitor II Calbiochem). EC50 values are calculated using Graphpad Prism.

HCT116-G31D = test: Viability assay (CellTiterBlue, 72 hr) HCT116; settings: Homo sapiens, HCT-116, GI50, CellTiterBlue, HCT116 K-Ras G13D, read-out: 72 hr Cell Viability HCT116 (G13D)
Summary of the method: (§3)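 Fluorescence at Ex550/Em590, read 3 hr after CellTiterBlue addition, served as the viability signal following 72 hr compound treatment. Wells held 1000 cells, pre-incubated 18 hr at 37 °C, with 0.5% DMSO final. GI50 derived with DMSO as 100% and 100 uM tamoxifen as 0% viability.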

[2] = system: HCC827 (K-Ras wild type cell line); test: Viability assay (CellTiterBlue, 72 hr) HCC827; settings: Homo sapiens, GI50, CellTiterBlue, HCC827 K-Ras wild-type
Summary of the method: as §3

[3] = system: phospho-Akt in Panc1 (G12D); test: In-Cell Western phospho-Akt, Panc1; settings: Homo sapiens, PANC-1, 1 h; Panc1, one hour treatment; read-out: In-Cell Western Panc1 (G12D) Akt (P)
Protocol: as §1, §2

K-Ras G12D = target: T1, K-Ras G12D (Homo sapiens, UniProt P01116, G12D); test: G-LISA Ras activation, 293H cells transfected with G12D mutant; settings: compound 1 hour
T1 construct: expressed in transfected cells; host or cells: 293H cells
T1 sequence (P01116 whole entry G12D): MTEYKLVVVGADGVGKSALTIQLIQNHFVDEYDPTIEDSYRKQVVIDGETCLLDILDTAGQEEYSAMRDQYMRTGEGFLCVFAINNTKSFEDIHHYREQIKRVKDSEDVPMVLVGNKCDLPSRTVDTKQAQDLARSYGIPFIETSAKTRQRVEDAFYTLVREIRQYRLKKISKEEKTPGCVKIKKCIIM
Summary of the method: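 Seed 293H cells, transfect with Ras wild-type or mutant vector, treat with compound (3.125-25 μM, 1 h), stimulate wild-type cells with EGF (100 ng/ml, 2 min), lyse in ice-cold buffer, then measure GTP-Ras by G-LISA.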

Panc10.05-G12D = test: Viability assay (CellTiterBlue, 72 hr) Panc10.05; settings: Homo sapiens, Panc1005, GI50, CellTiterBlue, Panc10.05 K-Ras G12D, read-out: 72 hr Cell Viability Panc10.05 (G12D)
Summary of the method: as §3

Panc1-G12D = test: Viability assay (CellTiterBlue, 72 hr) Panc1; settings: Homo sapiens, PANC-1, GI50, CellTiterBlue, Panc1 K-Ras G12D, read-out: 72 hr Cell Viability Panc1 (G12D)
Summary of the method: as §3

wild type K-Ras = target: T2, wild type K-Ras (Homo sapiens, UniProt P01116); test: G-LISA Ras activation, 293H cells transfected with Ras wild-type, EGF stimulated; settings: compound 1 hour, then 100 ng/ml EGF 2 minutes
T2 construct: expressed in transfected cells; host or cells: 293H cells
T2 sequence (P01116 whole entry): as the sequence (P01116 whole entry G12D) above, with D12G counted along it
Protocol: 293H cells were seeded in 6-wells at 0.6×10^6 cells per well and transfected next day with 5 μg of Ras wild-type, or G12C, G12D or G12V mutant DNA plasmid vector using transfection reagent Lipofectamine 3000. Next day cells were treated with 3.125-25 μM of Ras compounds for 1 hour. Wild-type transfected cells were subsequently treated with 100 ng/ml EGF for 2 minutes. Cells were washed once in ice-cold PBS, lysed in complete lysis buffer on ice, and processed by G-LISA according to Cytoskeleton protocol.

[4] = system: phospho-ERK in Panc1 (G12D); test: In-Cell Western phospho-ERK, Panc1; settings: Homo sapiens, PANC-1, 1 h; Panc1, one hour treatment; read-out: In-Cell Western Panc1 (G12D) Erk (P)
Protocol: as §1, §2

[5] = system: phospho-Akt in Panc10.05 (G12D); test: In-Cell Western phospho-Akt, Panc10.05; settings: Homo sapiens, Panc1005, 1 h; Panc10.05, one hour treatment; read-out: In-Cell Western Panc10.05 (G12D) Akt (P)
Protocol: as §1, §2

[6] = system: Ishikawa (K-Ras wild type cell line); test: Viability assay (CellTiterBlue, 72 hr) Ishikawa; settings: Homo sapiens, GI50, CellTiterBlue, Ishikawa K-Ras wild-type
Summary of the method: as §3

[7] = system: A375 (K-Ras wild type cell line); test: Viability assay (CellTiterBlue, 72 hr) A375; settings: Homo sapiens, A-375, GI50, CellTiterBlue
Protocol: Viability assays were performed on exemplary compounds and Table 2 below lists exemplary results for selected compounds tested on K-Ras wild type cell lines (Ishikawa, U87-MG, HCC827, and A375) and various K-Ras mutant cell lines (Panc1-G12D; Panc10.05-G12D; HCT116-G31D). Results are expressed in μM and corresponding structures are shown in FIGS. 2A-2G and Examples 1-152, above.
Cells are counted and seeded at 1000 cells/36 ul medium/well into 384-well microplates. Cells are returned to 37° C. CO2 incubator for 18 hr. Drug is made as 200× in DMSO and diluted into medium to 10×. To each well is added 4 ul 10× drug, and plates are returned to the incubator. Final assay DMSO concentration is 0.5%. After 72 hr, 8 ul CellTiterBlue (Promega) is added to each well. After 3 hr, fluorescence (Ex550/Em590) is determined on the Victor Plate Reader (Perkin Elmer). Assay range is determined by DMSO control (100% viability) and 100 uM tamoxifen (0% viability). GI50 values are calculated using Graphpad Prism.

[8] = system: phospho-Akt in A375 (Wild-type); test: In-Cell Western phospho-Akt, A375; settings: Homo sapiens, A-375, 1 h; A375, one hour treatment; read-out: In-Cell Western A375 (Wild-type) Akt (P)
Protocol: as §1, §2

[9] = system: phospho-ERK in HCC827 (Wild-type); test: In-Cell Western phospho-ERK, HCC827; settings: Homo sapiens, 1 h; HCC827, one hour treatment; read-out: In-Cell Western HCC827 (Wild-type) Erk (P)
Protocol: as §1, §2

[10] = system: phospho-ERK in A375 (Wild-type); test: In-Cell Western phospho-ERK, A375; settings: Homo sapiens, A-375, 1 h; A375, one hour treatment; read-out: In-Cell Western A375 (Wild-type) Erk (P)
Protocol: as §1, §2

[11] = system: U87-MG (K-Ras wild type cell line); test: Viability assay (CellTiterBlue, 72 hr) U87-MG; settings: Homo sapiens, U-87 MG, GI50, CellTiterBlue, U87-MG K-Ras wild-type
Summary of the method: as §3

SMILES: Cc1cc(C(=O)Nc2nc(-c3ccc4c(c3)CCC(=O)N4)cs2)n(C)n1 [Compound 22, 1,3-dimethyl-N-(4-(2-oxo-1,2,3,4-tetrahydroquinolin-6-yl)thiazol-2-yl)-1H-pyrazole-5-carboxamide]
- EC50 [1]: > 25 µM
- IC50 (HCT116-G31D): > 25 µM
- IC50 [2]: 22 µM
- EC50 [3]: > 25 µM
- IC50 (K-Ras G12D): 4.6 µM
- IC50 (Panc10.05-G12D): 0.734 µM
- IC50 (Panc1-G12D): 1.3 µM
- IC50 (wild type K-Ras): 12.6 µM
- EC50 [4]: > 25 µM
- EC50 [5]: 27 µM
- IC50 [6]: 4 µM

SMILES: Cc1nc(C)c(C(=O)Nc2nc(-c3ccc4c(c3)CCC(=O)N4Cc3cccnc3C#N)cs2)o1 [Compound 94, N-(4-(1-((2-cyanopyridin-3-yl)methyl)-2-oxo-1,2,3,4-tetrahydroquinolin-6-yl)thiazol-2-yl)-2,4-dimethyloxazole-5-carboxamide]
- IC50 [7]: > 25 µM
- EC50 [1]: > 25 µM
- IC50 (HCT116-G31D): > 25 µM
- IC50 [2]: > 25 µM
- EC50 [8]: > 25 µM
- EC50 [3]: > 25 µM
- EC50 [9]: > 25 µM
- EC50 [10]: > 25 µM
- IC50 (Panc10.05-G12D): > 25 µM
- IC50 (Panc1-G12D): > 25 µM
- EC50 [4]: > 25 µM
- IC50 [11]: > 25 µM
- EC50 [5]: > 25 µM
- IC50 [6]: > 25 µM

SMILES: Cc1nc(CNC(=O)OC(C)(C)C)sc1C(=O)Nc1nc(-c2ccc3c(c2)CCC(=O)N3)cs1 [Compound 143, tert-butyl ((4-methyl-5-((4-(2-oxo-1,2,3,4-tetrahydroquinolin-6-yl)thiazol-2-yl)carbamoyl)thiazol-2-yl)methyl)carbamate]
- EC50 [1]: 8 µM
- IC50 (HCT116-G31D): > 25 µM
- EC50 [3]: 14 µM
- IC50 (Panc10.05-G12D): 4 µM
- IC50 (Panc1-G12D): 7 µM
- IC50 (wild type K-Ras): 19 µM
- EC50 [4]: 8 µM
- IC50 [11]: 9 µM
- EC50 [5]: 12 µM
- IC50 [6]: > 25 µM

SMILES: Cn1nccc1C(=O)Nc1nc(-c2ccc3c(c2)CCC(=O)N3)cs1 [Compound 51, 1-methyl-N-(4-(2-oxo-1,2,3,4-tetrahydroquinolin-6-yl)thiazol-2-yl)-1H-pyrazole-5-carboxamide]
- IC50 [7]: > 25 µM
- EC50 [1]: 25 µM
- IC50 (HCT116-G31D): > 25 µM
- IC50 [2]: > 25 µM
- EC50 [8]: > 25 µM
- EC50 [3]: > 25 µM
- EC50 [9]: > 25 µM
- EC50 [10]: > 25 µM
- IC50 (K-Ras G12D): 21.5 µM
- IC50 (Panc10.05-G12D): > 25 µM
- IC50 (Panc1-G12D): > 25 µM
- EC50 [4]: > 25 µM
- IC50 [11]: > 25 µM
- IC50 [6]: > 25 µM

SMILES: Cc1nc(C2CCCC2)sc1C(=O)Nc1nc(-c2ccc3c(c2)CCC(=O)N3)cs1 [Compound 145, 2-cyclopentyl-4-methyl-N-(4-(2-oxo-1,2,3,4-tetrahydroquinolin-6-yl)thiazol-2-yl)thiazole-5-carboxamide]
- EC50 [1]: 7 µM
- IC50 (HCT116-G31D): > 25 µM
- EC50 [3]: 18 µM
- IC50 (K-Ras G12D): 24 µM
- IC50 (Panc10.05-G12D): 7 µM
- IC50 (Panc1-G12D): 11 µM
- IC50 (wild type K-Ras): > 25 µM
- EC50 [4]: 5 µM
- IC50 [11]: 16 µM
- EC50 [5]: 17 µM
- IC50 [6]: > 25 µM

SMILES: Cc1nc(C2CC2)oc1C(=O)Nc1nc(-c2ccc3c(c2)CCC(=O)N3CCc2ccccc2)cs1 [Compound 61, 2-cyclopropyl-4-methyl-N-(4-(2-oxo-1-phenethyl-1,2,3,4-tetrahydroquinolin-6-yl)thiazol-2-yl)oxazole-5-carboxamide]
- EC50 [1]: 2 µM
- IC50 (HCT116-G31D): 3 µM
- EC50 [3]: 2 µM
- IC50 (K-Ras G12D): 5.1 µM
- IC50 (Panc10.05-G12D): 0.87 µM
- IC50 (Panc1-G12D): 1.6 µM
- IC50 (wild type K-Ras): 8.5 µM
- EC50 [4]: 0.528 µM
- IC50 [11]: 1.3 µM
- IC50 [6]: 2.1 µM

SMILES: Cc1nn(C)cc1C(=O)Nc1nc(-c2ccc3c(c2)CCC(=O)N3)cs1 [Compound 21, 1,3-dimethyl-N-(4-(2-oxo-1,2,3,4-tetrahydroquinolin-6-yl)thiazol-2-yl)-1H-pyrazole-4-carboxamide]
- EC50 [1]: > 25 µM
- IC50 (HCT116-G31D): 10 µM
- IC50 [2]: 6 µM
- EC50 [3]: 12 µM
- IC50 (K-Ras G12D): 3.8 µM
- IC50 (Panc10.05-G12D): 0.797 µM
- IC50 (Panc1-G12D): 2 µM
- IC50 (wild type K-Ras): 17.1 µM
- EC50 [4]: > 25 µM
- EC50 [5]: 8 µM
- IC50 [6]: 5 µM

SMILES: CCc1nc(C)c(C(=O)Nc2nc(-c3ccc4c(c3)CCC(=O)N4)cs2)o1 [Compound 5, 2-ethyl-4-methyl-N-(4-(2-oxo-1,2,3,4-tetrahydroquinolin-6-yl)thiazol-2-yl)oxazole-5-carboxamide]
- IC50 (HCT116-G31D): 22 µM
- EC50 [3]: 13 µM
- IC50 (K-Ras G12D): 10.2 µM
- IC50 (Panc10.05-G12D): 19 µM
- IC50 (Panc1-G12D): 6 µM
- IC50 (wild type K-Ras): 14.1 µM
- IC50 [11]: > 25 µM
- EC50 [5]: 8 µM
- IC50 [6]: > 25 µM

SMILES: Cc1nc(C(C)C)sc1C(=O)Nc1nc(-c2ccc3c(c2)CCC(=O)N3)cs1 [Compound 3, 2-isopropyl-4-methyl-N-(4-(2-oxo-1,2,3,4-tetrahydroquinolin-6-yl)thiazol-2-yl)thiazole-5-carboxamide]
- EC50 [1]: 3 µM
- IC50 (HCT116-G31D): 18 µM
- EC50 [3]: 9 µM
- IC50 (Panc10.05-G12D): 14 µM
- IC50 (Panc1-G12D): 5.5 µM
- IC50 (wild type K-Ras): 12 µM
- EC50 [4]: 2 µM
- IC50 [11]: 12 µM
- EC50 [5]: 8 µM
- IC50 [6]: > 25 µM

From patent US10344026B2, “Compositions and methods of targeting mutant K-ras” (NANTBIO, INC., priority 2017, dated 2019)
